This note sets out measurements from paper PMC7156724, “Potent BRD4 inhibitor suppresses cancer cell-macrophage interaction” (Nature Communications, 2020).

Where “and” joins values, the source holds several entries; their conditions need not be identical. Equal values may be shown once.

One assay relates to HIF1A mRNA. Briefly: RT-qPCR of HIF1A in A375 or A2780 cells. Type of assay: cell-based, human. Here is the method:
(§1) Fig. 7 NHWD-870 inhibited CSF1 expression through suppressing BRD4 and HIF1α in tumor cells. a, b Representative western blot analysis of control (Ctrl) and BRD4 knockout (KO) A375 and A2780 cells exposed to 20% or 1% O2 for 24 hours. Selected from three independent experiments. c, d Representative western blot analysis of A375 and A2780 cells treated with DMSO or 25 nM NHWD-870 and exposed to 20% or 1% O2 for 24 h. Selected from three independent experiments. e Relative HIF1 luciferase reporter activity in control (Ctrl), BRD4 knockout (KO), or NHWD-870 treated A375 and A2780 cells exposed to 20% or 1% O2 for 24 h. Data are presented as mean ± SEM from three independent experiments. f RT-qPCR analyses of CSF1 in control (Ctrl), BRD4 knockout (KO), or NHWD-870 treated A375 and A2780 cells exposed to 20% or 1% O2 for 24 hours. Data are presented as mean ± SEM from three independent experiments. g RT-qPCR analyses of HIF1A in A375 or A2780 cells treated with 15 nM NHWD-870 or DMSO control for 24 h. Data are presented as mean ± SEM from three independent experiments. h Genome browser view of BRD4 ChIP-seq peaks on the HIF1A promoter. […] NHWD-870 inhibits the proliferation and survival of TAMs partly by inhibiting BRD4 activity, HIF1α expression, and CSF1 secretion by tumor cells, and downregulating CSF1R mediated ERK and PI3K/AKT signaling in TAMs. p values were calculated using two-tailed, unpaired t tests in this figure. *p < 0.05; **p < 0.01; ***p < 0.001. […]
Total RNA was extracted with RNeasy plus mini kit (Qiagen), and then cDNA was synthesized by iScript™ cDNA Synthesis Kit (Bio-Rad). qPCR was performed using a CFX96 Real-time PCR Instrument (BioRad). Data were collected using CFX Manager version 3.1.1517.823 and analyzed using Microsoft Excel 2010. Relative expression levels were determined by normalization to human GAPDH using the ∆∆Ct method. […]

The test system of another assay is HIF1α protein. The experiment in a line: Western blot of HIF1α in A375 and A2780 cells at 20% or 1% O2. The class given is cell-based, human. As to conditions: 25 nM, 20% or 1% O2, 24 h. Here is the method:
as §1, with “h.” for “h. Data are presented as mean ± SEM from three independent experiments. f RT-qPCR analyses of CSF1 in control (Ctrl), BRD4 knockout (KO), or NHWD-870 treated A375 and A2780 cells exposed to 20% or 1% O2 for 24 hours. Data are presented as mean ± SEM from three independent experiments. g RT-qPCR analyses of HIF1A in A375 or A2780 cells treated with 15 nM NHWD-870 or DMSO control for 24 h. Data are presented as mean ± SEM from three independent experiments. h Genome browser view of BRD4 ChIP-seq peaks on the HIF1A promoter.”
of treatment, 10 μl AlamarBlue reagent (0.3 mg/ml) was added to each well, and after 18h, the florescence intensity in each well was measured using a top-reading fluorescent plate reader with excitation at 530 nm and emission at 590 nm.
4. […] Supernatants were collected and determined with a Bradford Protein Assay kit (Bio-Rad, Hercules, CA). […]
every week. […] Colony numbers were calculated with imageJ version

`Cc1nnn(C)c1-c1cnc2c3c4cnn(C)c4ccc3n([C@H](c3ccccc3)C3CCOCC3)c2c1` [NHWD-870]: in the assay with HIF1A mRNA (15 nM, 24 h, A375 or A2780 cells), the “HIF1A mRNA levels” value is recorded as “decreased HIF1A mRNA levels”. Further, the “HIF1A mRNA, relative to DMSO (Fig.7g)” value with HIF1A mRNA (A375) is 0.3638 and 0.3259 and 0.3497; in the assay on HIF1A mRNA (A2780) it was 0.269 and 0.2453 and 0.2176. The “HIF1α protein (western blot)” value in the assay on HIF1α protein is “decreased HIF1α protein”.
